Results taken from US20140296149A1, “Compositions and Methods for the Treatment of Cardiac Surgery-Associated Acute Kidney Injury with Annexin A1 Peptide” (priority 2010, published 2014).
No end group written: not given here.

Key:
[1] = system: splanchnic artery occlusion and reperfusion injury; conditions: by affecting neutrophil migration; cited from earlier work
[2] = system: experimental myocardial ischemia-reperfusion; conditions: by attenuating neutrophil migration; cited from earlier work
[3] = system: rat model of CPB/CA; test: Early renal biomarker GST-μ in rat urine, preclinical model of CPB/CA; assay type: in vivo; conditions: setting of myocardial ischemia/reperfusion, n=3, vs vehicle
Source text: FIG. 5. […] Values presented are means±SD; n=3; *p<0.05 vs. Vehicle.
(§1) NGAL positive staining was abundant in ANXA1sp treated animals and mainly located in the proximal tubule cells (FIG. 3C).

[4] = system: Male Sprague-Dawley rats, CPB/DHCA; test: Rat CPB/DHCA, ANXA1sp 2 mg/kg i.v. (Example II); assay type: in vivo
Description: Male Sprague-Dawley rats were prepared for 60 min of DHCA at 18° C. and received either vehicle or ANXA1 sp (2 mg/kg) i.v. at one hour before CPB and one hour after reperfusion. Renal tissue and serum samples were harvested at 3 (n=5), 6 (n=3), and 24 hours (n=3) i.v. after CPB/DHCA. The time course of renal activity of NF-kappa B was determined by a rat specific ELISA kit. Changes of renal and serum levels of the proinflammatory cytokines tumor necrosis factor-alpha (TNF-α) and interleukin (IL)-6 as well as myeloperoxidase (MPO) were measured by ELISA. Changes of renal levels of activated caspase-3 were determined by Western blot. At 24 hours after DHCA, apoptotic proximal tubular cells was identified by TUNEL and quantified by counting the numbers of apoptotic proximal tubular cells in 5 representative renal areas.

[5] = system: rat model of CPB/DHCA; test: Preclinical rat model of CPB/DHCA, cardiac-surgery associated AKI (Example I, i.p.); assay type: in vivo
Description: FIGS. 1A-B. ANXA1 short peptide (ANXA1sp) treatment ameliorates proximal tubular apoptosis and inhibits the activity of caspase-3 induced by ischemia-reperfusion injury following deep hypothermia circulatory arrest (DHCA). Quantification of apoptosis was determined by terminal deoxynucleotidyl transferase dUTP nick end labeling (TUNEL) staining (A) and the activity of caspase-3 analyzed by Western blot (B) at 24 h after DHCA in rats either treated with ANXA1sp or 0.1% DMSO (vehicle) i.p. Results are shown as mean±SD of six animals in each group. *p<0.002.
FIGS. 2A-B. Effect of treatment of ANXA1sp after ischemia-reperfusion injury on cell apoptosis and cell proliferation. (A) Treatment with ANXA1sp inhibits apoptosis (TUNEL staining) and enhances proliferation (PCNA staining) induced by ischemia-reperfusion injury following deep hypothermia circulatory arrest (DHCA). Representative sections from 24 hrs after DHCA in rats treated with either ANXA1sp or 0.1% DMSO (vehicle) (original magnification 300×). (B) ANXA1sp tilts the balance of proximal tubular cell fate toward survival after ischemia-reperfusion injury. A ratio of proliferation/apoptosis (TUNEL) was calculated in proximal tubules 24 hrs after DHCA in rats treated with either ANXA1sp or 0.1% DMSO (vehicle). Results were shown as mean±SD of six rats in each group. *p<0.005 versus vehicle.
FIGS. 3A-C. (A) Protein levels of neutrophil gelatinase associated lipocalin (NGAL) analyzed by Western blot in the kidney 24 hrs after reperfusion following cardiopulmonary bypass (CPB) and deep hypothermic circulatory arrest (DHCA) in vehicle treated animals (Vehicle) versus ANXA1sp treated animals (ANXA1sp). Results are shown as mean±SD. (n=6). *p<0.01 vs. Vehicle. (B) Effect of ANXA1sp on renal NGAL protein levels. Results are representative of six independent experiments in each group. (C) The location of NGAL protein detected by immunohistochemistry in the kidney 24 hrs after reperfusion following DHCA in vehicle treated animals (Vehicle) versus ANXA1sp treated animals (ANXA1sp). NGAL protein was visualized with the NGAL antibody. NGAL positive staining was abundant in ANXA1sp treated animals and mainly located in the proximal tubule cells (red color) (original magnification 200×).
FIG. 4. ANXA1sp treatment represses the renal levels of TNF-α induced by ischemia-reperfusion injury following deep hypothermia circulatory arrest (DHCA) analyzed by ELISA in the kidney 24 hrs after reperfusion in rats either treated with ANXA1sp (open bar, n=6) or vehicle (0.1% DMSO) i.p. (filled bar, n=6). Results are expressed as mean value±SD; *p<0.05 vs. Vehicle.
as §1

[6] = system: myocardial ischemia-reperfusion; conditions: several in vitro and in vivo preclinical models; cited from earlier work
[7] = system: myocardial I/R injury; conditions: cited from earlier work
[8] = 6 and 24 h after DHCA, vs vehicle

Ac-Ala-Met-Val-Ser-Glu-Phe-Leu-Lys-Gln-Ala-Trp Phe-Ile-Glu-Asn-Glu-Glu-Gln-Glu-Tyr-Val-Gln-Thr-Val-Lys (Ac-AMVSEFLKQAWFIENEEQEYVQTVK) [Ac2-26]
protection against splanchnic artery occlusion and reperfusion injury [1]: protects | protection against experimental myocardial ischemia-reperfusion [2]: protects

Ac-Gln-Ala-Trp [ANXA1sp]
expression of GST-μ in rat urine [3]: significantly reduced expression | AKI following CPB/DHCA [4]: attenuates | renal activity of NF-kappa B (ELISA) ([4]; 3 and 6 hours after DHCA, vs vehicle): significant inhibition | renal levels of IL-6 (ELISA) [4, 8]: significantly suppressed | renal levels of MPO (ELISA) [4, 8]: significantly suppressed | numbers of apoptotic proximal tubular cells (TUNEL) ([4]; 24 h after DHCA, vs vehicle): reduced numbers | renal levels of TNF-α (ELISA) ([4]; 24 hours after DHCA, vs vehicle): significantly suppressed | renal activity of caspase-3 (Western blot) ([4]; different time points after DHCA, vs vehicle): significantly decreased | release of IL-6 in the serum ([4]; vs vehicle, data not shown): significantly reduced release | release of MPO in the serum ([4]; vs vehicle, data not shown): significantly reduced release | release of TNF-α in the serum ([4]; vs vehicle, data not shown): significantly reduced release | numbers of proximal tubular cells (apoptosis, TUNEL staining) ([5]; 24 h after DHCA, i.p., vs vehicle, n=6): reduced numbers | tubule cell proliferation (PCNA staining) ([5]; 24 hrs after DHCA, vs vehicle): enhanced | expression of NGAL in the kidney (Western blot) ([5]; 24 hrs after reperfusion following CPB and DHCA, vs vehicle): significantly higher expression | levels of TNF-α protein in the kidney (ELISA) ([5]; 24 hrs after reperfusion, i.p., vs vehicle): significantly lower levels | activity of caspase-3 (Western blot) ([5]; kidney, 24 h after DHCA, i.p., vs vehicle): lower activity | NGAL positive staining (immunohistochemistry) ([5]; kidney, 24 hrs after reperfusion, mainly located in proximal tubule cells): abundant | balance of proximal tubular cell fate (ratio of proliferation/apoptosis) ([5]; proximal tubules, 24 hrs after DHCA, vs vehicle): tilted the balance of proximal tubular cell fate toward survival | cardiac-surgery associated acute kidney injury (AKI) ([5]; rat CPB/DHCA, vs vehicle (0.1% DMSO)): significantly attenuates | cardioprotective efficacy [6]: robust cardioprotective efficacy

B1: ANXA1: 37 kDa protein, member of the annexin superfamily; about 346 amino acids (SEQ ID NO:2) (protein, listed as Homo sapiens)
chain: MAMVSEFLKQAWFIENEEQEYVQTVKSSKGGPGSAVSPYPTFNPSSDVAALHKAIMVKGVDEATIIDILTKRNNAQRQQIKAAYLQETGKPLDETLKKALTGHLEEVVLALLKTPAQFDADELRAAMKGLGTDEDTLIEILASRTNKEIRDINRVYREELKRDLAKDITSDTSGDFRNALLSLAKGDRSEDFGVNEDLADSDARALYEAGERRKGTDVNVFNTILTTRSYPQLRRVFQKYTKYSKHDMNKVLDLELKGDIEKCLTAIVKCATSKPAFFAEKLHQAMKGVGTRHKALIRIMVSRSEIDMNDIKAFYQKMYGISLCQAILDETKGDYEKILVALCGGN
leukocyte-dependent myocardial damage ([7]; myocardial I/R injury): reduces | numbers of extravasated leukocytes ([7]; rats treated with ANXA1): significantly lower numbers
